Target: T1, SIRT1 (Homo sapiens, UniProt Q96EB6)
T1 sequence (Q96EB6 1-747): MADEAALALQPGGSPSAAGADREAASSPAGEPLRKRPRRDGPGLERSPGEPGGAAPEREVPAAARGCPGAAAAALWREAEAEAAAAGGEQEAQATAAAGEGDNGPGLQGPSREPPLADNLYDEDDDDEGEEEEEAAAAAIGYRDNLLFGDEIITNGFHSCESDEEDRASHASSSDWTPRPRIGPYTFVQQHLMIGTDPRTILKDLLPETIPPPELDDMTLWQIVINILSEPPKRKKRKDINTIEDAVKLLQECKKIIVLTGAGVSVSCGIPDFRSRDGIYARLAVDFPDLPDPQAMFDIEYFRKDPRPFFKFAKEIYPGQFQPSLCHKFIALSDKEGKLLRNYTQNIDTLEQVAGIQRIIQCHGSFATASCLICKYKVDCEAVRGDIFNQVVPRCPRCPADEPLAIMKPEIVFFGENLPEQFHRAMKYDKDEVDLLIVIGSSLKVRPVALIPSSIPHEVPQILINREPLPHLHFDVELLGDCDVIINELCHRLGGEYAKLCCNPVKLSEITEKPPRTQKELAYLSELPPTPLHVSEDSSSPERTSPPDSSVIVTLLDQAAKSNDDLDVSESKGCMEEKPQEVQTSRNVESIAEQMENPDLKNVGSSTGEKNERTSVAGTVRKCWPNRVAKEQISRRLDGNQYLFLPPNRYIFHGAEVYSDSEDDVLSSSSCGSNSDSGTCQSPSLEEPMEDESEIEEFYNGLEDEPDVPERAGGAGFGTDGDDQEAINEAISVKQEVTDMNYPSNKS
Experiment: Mass spectrometry based SIRT1 deacetylation assay (activation)
Type: biochemical
Settings: 10 nM SIRT1, 0.5 μM peptide substrate, 120 μM βNAD+, 25 min at 25° C.
Excerpt: A mass spectrometry based assay was used to identify modulators of SIRT1 activity. The mass spectrometry based assay utilizes a peptide having 20 amino acid residues as follows: Ac-EE-K (biotin)-GQSTSSHSK (Ac)N1eSTEG-K(5TMR)-EE-NH2 (SEQ ID NO: 1) wherein K(Ac) is an acetylated lysine residue and Nle is a norleucine. The peptide is labeled with the fluorophore 5TMR (excitation 540 nm/emission 580 nm) at the C-terminus. The sequence of the peptide substrate is based on p53 with several modifications. In addition, the methionine residue naturally present in the sequence was replaced with the norleucine because the methionine may be susceptible to oxidation during synthesis and purification.
The mass spectrometry assay is conducted as follows: 0.5 μM peptide substrate and 120 μM βNAD^+ is incubated with 10 nM SIRT1 for 25 minutes at 25° C. in a reaction buffer (50 mM Tris-acetate pH 8, 137 mM NaCl, 2.7 mM KCl, 1 mM MgCl2, 5 mM DTT, 0.05% BSA). Test compounds may be added to the reaction as described above. The SirT1 gene is cloned into a T7-promoter containing vector and transformed into BL21(DE3). After the 25 minute incubation with SIRT1, 10 μL of 10% formic acid is added to stop the reaction. Reactions are sealed and frozen for later mass spec analysis. Determination of the mass of the substrate peptide allows for precise determination of the degree of acetylation (i.e. starting material) as compared to deacetylated peptide (product).
A control for inhibition of sirtuin activity is conducted by adding 1 μL of 500 mM nicotinamide as a negative control at the start of the reaction (e.g., permits determination of maximum sirtuin inhibition). A control for activation of sirtuin activity is conducted using 10 nM of sirtuin protein, with 1 μL of DMSO in place of compound, to determine the amount of deacetylation of the substrate at a given timepoint within the linear range of the assay. This timepoint is the same as that used for test compounds and, within the linear range, the endpoint represents a change in velocity.
For the above assay, SIRT1 protein was expressed and purified as follows. The SirT1 gene was cloned into a T7-promoter containing vector and transformed into BL21(DE3). The protein was expressed by induction with 1 mM IPTG as an N-terminal His-tag fusion protein at 18° C. overnight and harvested at 30,000×g. Cells were lysed with lysozyme in lysis buffer (50 mM Tris-HCl, 2 mM Tris[2-carboxyethyl]phosphine (TCEP), 10 μM ZnCl2, 200 mM NaCl) and further treated with sonication for 10 min for complete lysis. The protein was purified over a Ni-NTA column (Amersham) and fractions containing pure protein were pooled, concentrated and run over a sizing column (Sephadex S200 26/60 global). The peak containing soluble protein was collected and run on an Ion-exchange column (MonoQ). Gradient elution (200 mM-500 mM NaCl) yielded pure protein. This protein was concentrated and dialyzed against dialysis buffer (20 mM Tris-HCl, 2 mM TCEP) overnight. The protein was aliquoted and frozen at −80° C. until further use.
Sirtuin modulating compounds that activated SIRT1 were identified using the assay described above and are shown below in Table 1. The EC1.5 values represent the concentration of test compounds that result in 150% activation of SIRT1. The EC1.5 values for the activating compounds are represented by A (EC1.5<1.0 uM), B (EC1.5 1-25 uM), C (EC1.5>25 uM). The percent maximum fold activation is represented by A (Fold activation >200%) or B (Fold Activation <200%). “NT” indicates the compound was not tested in a particular assay.

Row | Compound | % Fold Act. (percent maximum fold activation) | EC1.5 (concentration of test compound that results in 150% activation of SIRT1)
1 | O=C(NCc1ccncc1)c1cccc2ccc(-c3cccc(C(F)(F)F)c3)nc12 [Compound 37] | B (Fold Activation <200%) | B (EC1.5 1-25 uM)
2 | O=C(Nc1ccc(F)cn1)c1cccc2ccc(-c3cccnc3)nc12 [Compound 265] |  | C (EC1.5>25 uM)
3 | O=C(NCc1ccccn1)c1cccc2ccc(-c3cccc(C(F)(F)F)c3)nc12 [Compound 35] | B (Fold Activation <200%) | B (EC1.5 1-25 uM)
4 | FC(F)(F)c1cccc(-c2ccc3cccc(NCC4CCCC4)c3n2)c1 [Compound 138] |  | C (EC1.5>25 uM)
5 | O=C(Nc1ccncc1)c1cccc2ccc(-c3cccnc3)nc12 [Compound 237] |  | C (EC1.5>25 uM)
6 | Fc1ccc(C(F)(F)F)cc1-c1ccc2cccc(NCc3cccnc3)c2n1 [Compound 167] |  | C (EC1.5>25 uM)
7 | O=C(Nc1ccncc1)c1cccc2ccc(-c3cccc(C(F)(F)F)c3)nc12 [Compound 32] | A (Fold activation >200%) | A (EC1.5<1.0 uM)
8 | O=C(Nc1ccncn1)c1cccc2ccc(-c3ccccc3C(F)(F)F)nc12 [Compound 87] | A (Fold activation >200%) | A (EC1.5<1.0 uM)
9 | CS(=O)(=O)c1cccc(-c2ccc3cccc(NC(=O)c4cscn4)c3n2)c1 [Compound 81] | A (Fold activation >200%) | A (EC1.5<1.0 uM)
10 | c1cncc(CNc2cccc3ccc(-c4ccncc4)nc23)c1 [Compound 146] |  | C (EC1.5>25 uM)
11 | O=C(Nc1ncnc2ccc(-c3cccc(C(F)(F)F)c3)nc12)c1cncs1 [Compound 300] | A (Fold activation >200%) | B (EC1.5 1-25 uM)
12 | O=C(Nc1ccccn1)c1cccc2ccc(-c3cccc(C(F)(F)F)c3)nc12 [Compound 30] | A (Fold activation >200%) | A (EC1.5<1.0 uM)
13 | c1cncc(CNc2cccc3ccc(-c4ccc5c(c4)OCO5)nc23)c1 [Compound 164] |  | C (EC1.5>25 uM)
14 | O=C(Nc1ccccn1)c1cccc2ncc(-c3cccc(OC(F)(F)F)c3)nc12 [Compound 127] |  | C (EC1.5>25 uM)
15 | O=C(Nc1cccc2ccc(-c3ccncc3)nc12)c1cnccn1 [Compound 155] |  | C (EC1.5>25 uM)
16 | O=C(Nc1ccncn1)c1cccc2cnc(-c3cccc(C(F)(F)F)c3)nc12 [Compound 271] | B (Fold Activation <200%) | B (EC1.5 1-25 uM)
17 | Cc1cncc(-c2ccc3cccc(NC(=O)c4cscn4)c3n2)c1 [Compound 214] | A (Fold activation >200%) | A (EC1.5<1.0 uM)
18 | O=C(NC1CCCC1)c1cccc2ccc(-c3cccc(OC4CCNCC4)c3)nc12 [Compound 94] | A (Fold activation >200%) | B (EC1.5 1-25 uM)
19 | Cc1cc(-c2ccc3cccc(C(=O)Nc4ccncn4)c3n2)no1 [Compound 70] |  | C (EC1.5>25 uM)
20 | FC(F)(F)c1cccc(-c2ccc3cccc(NCc4cccnc4)c3n2)c1 [Compound 135] |  | C (EC1.5>25 uM)

More lines, now with the values ahead:

Row | % Fold Act. (percent maximum fold activation) | EC1.5 (concentration of test compound that results in 150% activation of SIRT1) | Compound
21 | A (Fold activation >200%) | A (EC1.5<1.0 uM) | Cc1csc(NC(=O)c2cccc3ccc(-c4cccc(N5CCOCC5)c4)nc23)n1 [Compound 238]
22 | A (Fold activation >200%) | A (EC1.5<1.0 uM) | O=C(Nc1nccs1)c1cccc2ccc(-c3cccc(OC4CCNCC4)c3)nc12 [Compound 131]
23 | A (Fold activation >200%) | A (EC1.5<1.0 uM) | O=C(Nc1cccc(CN2CCOCC2)n1)c1cccc2ccc(-c3cccnc3)nc12 [Compound 231]
24 |  | C (EC1.5>25 uM) | Cc1cc(-c2ccc3cccc(C(=O)Nc4nccs4)c3n2)no1 [Compound 69]
25 | A (Fold activation >200%) | A (EC1.5<1.0 uM) | O=C(Nc1ccccn1)c1cccc2cnc(-c3cccc(N4CCOCC4)c3)nc12 [Compound 315]
26 | B (Fold Activation <200%) | A (EC1.5<1.0 uM) | O=C(Nc1nccs1)c1cccc2ccc(-c3cccc(OC(F)(F)F)c3)nc12 [Compound 14]
27 | A (Fold activation >200%) | A (EC1.5<1.0 uM) | O=C(Nc1ncc(CN2CCOCC2)s1)c1cccc2ccc(-c3cccc(OC(F)(F)F)c3)nc12 [Compound 189]
28 | A (Fold activation >200%) | A (EC1.5<1.0 uM) | Cc1cc(NC(=O)c2cccc3ccc(-c4cccc(C(F)(F)F)c4)nc23)sn1 [Compound 59]
29 |  | C (EC1.5>25 uM) | Cc1cnc(NC(=O)c2cccc3ccc(-c4ccnc(C(F)F)c4)nc23)s1 [Compound 307]
30 | A (Fold activation >200%) | A (EC1.5<1.0 uM) | O=C(Nc1nc2ccccc2s1)c1cccc2ccc(-c3cccc(N4CCOCC4)c3)nc12 [Compound 250]
31 | A (Fold activation >200%) | A (EC1.5<1.0 uM) | O=C(Nc1cccc2ccc(-c3cccc(N4CCOCC4)c3)nc12)c1cscn1 [Compound 200]
32 |  | C (EC1.5>25 uM) | O=C(Nc1cccc2ccc(-c3cccc(N4CCCC4)c3)nc12)c1cscn1 [Compound 201]
33 | B (Fold Activation <200%) | A (EC1.5<1.0 uM) | Cc1cnc(NC(=O)c2cccc3ccc(-c4cccnc4)nc23)s1 [Compound 241]

Source: US8685970B2, “Quinolines and related analogs as sirtuin modulators” (GlaxoSmithKline, LLC, priority 2008, dated 2014)
